US9446026B2, “Ocular formulations for drug-delivery to the posterior segment of the eye” (PanOptica, Inc., priority 2013, dated 2016)

Experiments:
[1] = Ocular tissue concentrations, 0.3% Compound-I ophthalmic gel drop twice daily (toxicology study); format: in vivo, Dutch-Belted rabbits
[2] = tested on: pathologic retinal and choroidal neovascularization; test: Topical ocular delivery in rodent models of retinal and choroidal neovascularization; format: in vivo
[3] = design: species or system Dutch-Belted rabbits and beagle dogs; conditions: in vivo
Excerpt: Animals that received topical ocular administration of the tromethamine-based suspension were able to tolerate up to higher level of the active agent concentration in the formulation, as compared to equimolar formulations of the sodium phosphate-based Gel Drop.
Overall, the combination of decreased corneal exposure and corresponding improved ocular tolerability, while simultaneously maintaining or promoting drug delivery to the posterior segment target tissues, along with improved physicochemical stability, will provide greater benefit to patients compared to the ophthalmic Gel Drop formulation.
Retinal function was normal in all test article and vehicle treated groups during full-field electroretinograms performed in rabbits.

[4] = 0.3% Ophthalmic Gel Drop, Twice Daily 29 days
[5] = 0.3% ophthalmic gel drop with and without benzylalkonium chloride, twice daily, Dutch-Belted rabbits
[6] = Dutch-Belted (rabbit), beagle (dog), rabbit, dog

Compound: Cl.NC(=O)c1c(OCc2c(F)cc(Br)cc2F)nsc1NC(=O)NCCCCN1CCCC1 [Compound-I, 3-[(4-bromo-2,6-difluorophenyl)methoxy]-5-[[[[4-(1-pyrrolidinyl)butyl]amino]carbonyl]amino]-4-isothiazolecarboxamide hydrochloride]
- Central Choroid [Compound I] [1, 4]: 0.340 µM
- Cornea [Compound I] [1, 4]: 236.00 µM
- Mean ocular tissue concentration, aqueous humor [1, 5]: 0.0197 to 0.0395 µM
- Mean ocular tissue concentration, peripheral choroid [1, 5]: 2.79 to 4.10 µM
- Mean ocular tissue concentration, peripheral retina [1, 5]: 0.150 to 0.309 µM
- Inhibition of pathologic retinal and choroidal neovascularization [2]: significant inhibition
- Corneal exposure of ophthalmic solution lower than equimolar ophthalmic gel drops [3, 6]: 5 to 10 fold
- Corneal tissue exposure with ophthalmic gel drops [3, 6]: ≥ 100 µM
- Alterations of deeper structures of the eye or optic nerve, ophthalmic gel drops [3]: No untoward alterations
- Clinical or histopathologic findings with ophthalmic solution [3]: free of untoward clinical or histopathologic findings
